Where a name gives a salt, the structure may show the parent alone.
Columns and labels:
[1] = tested on: human neuroblastoma cell lines SH-SY5Y treated with 1-methyl-4-phenylpyridinium (MPP+); assay: Improvement of mitochondrial dysfunction in MPP+-treated SH-SY5Y cells (mitochondrial oxidation reduction activity, Alamar Blue); assay type: cell-based; conditions: 1.5 mM MPP+, relative to cells in DMSO alone = 100%, read-out: Fluorescence Intensity (%); for activity at 0.01 µg/mL: test compound 0.01 μg/ml; for activity at 0.03 µg/mL: test compound 0.03 μg/ml; for activity at 0.1 µg/mL: test compound 0.1 μg/ml; for activity at 0.3 µg/mL: test compound 0.3 μg/ml; for activity at 1 µg/mL: test compound 1 μg/ml
Experimental: Evaluation of the Improvement of Mitochondrial Dysfunction Using Human Neuroblastoma Cell Lines SH-SY5Y Treated with 1-methyl-4-phenylpyridinium (MPP^+)
In human neuroblastoma cell lines SH-SY5Y in which mitochondrial activity was injured by MPP^+ treatment (Bollimuntha S. et al., J Biol Chem, 280, 2132-2140 (2005) and Shang T. et al., J Biol Chem, 280, 34644-34653 (2005)), the improvement of mitochondrial dysfunction was evaluated on the basis of measurement values for mitochondrial oxidation reduction activity using Alamar Blue fluorescent dye after the compound addition (Nakai M. et al, Exp Neurol, 179, 103-110 (2003)).
The human neuroblastoma cell lines SH-SY5Y were cultured in Dulbecco's Modified Eagle's Medium containing 10% fetal bovine serum (DMEM containing 50 units/ml penicillin and 50 μg/ml streptomycin as antibiotics) at 37° C. in the presence of 5% carbon dioxide. Cells were scattered on a poly-D-lysine-coated 96-well black plate at a concentration of 3−6×10^4 cells/cm^2 (medium amount: 100 μl/well), and cultured in the above medium for two days. Further, the medium was changed to DMEM containing a 1% N2 supplement (N2-DMEM) or to a medium (100 μl/well) in which 1.5 mM MPP^+ was dissolved. The cells were cultured therein for 39 to 48 hours, and then subjected to a mitochondrial oxidation reduction activity measurement system. A sample compound that had been previously dissolved in dimethyl sulfoxide (DMSO) was diluted with N2-DMEM, and added in a volume of 10 μl/well 24 hours before the activity measurement (final compound concentration: 0.01 to 1 μg/ml).
After removal of the medium by suction, a balanced salt solution containing 10% Alamar Blue (154 mM sodium chloride, 5.6 mM potassium chloride, 2.3 mM calcium chloride, 1.0 mM magnesium chloride, 3.6 mM sodium bicarbonate, 5 mM glucose, 5 mM HEPES, pH 7.2) was added in a volume of 100 μl/well, and reacted in an incubator at 37° C. for 1 hour. The fluorescent intensity was detected using a fluorescence detector (a product of Hamamatsu Photonics K.K., excitation wavelength 530 nm, measurement wavelength 580 nm) to thereby measure the mitochondrial oxidation reduction activity.
The fluorescent intensity of the well of the cells cultured in a medium containing MPP^+ and in each of the sample compounds was relatively evaluated based on the 100% fluorescent intensity of the well of the cells cultured in a medium containing DMSO alone (final concentration: 0.1%).

melting point | Compound | activity at 0.01 µg/mL [1] | activity at 0.03 µg/mL [1] | activity at 0.1 µg/mL [1] | activity at 0.3 µg/mL [1] | activity at 1 µg/mL [1]
226 to 228 °C | CCCOc1ccc(F)c2c(=O)c(-c3ccc(OC)cc3)cn(CC(=O)NC3CCNCC3)c12 |  |  |  |  | 
218 to 220 °C | CCCOc1ccc(F)c2c(=O)c(-c3ccc(OC)cc3)cn(CC(=O)N(C)CCN3CCOCC3)c12 |  |  |  |  | 
 | CCCOc1cc2c(c3c(=O)c(-c4ccc(OC)cc4)c(C)[nH]c13)OCC2 [Example 48, 8-(4-methoxyphenyl)-7-methyl-5-propoxy-3,6-dihydro-2H-flo[2,3-f]quinolin-9-one] | 60% | 81% | 92% | 93% | 80%
 | CCCOc1cc2c(c3c(=O)c(-c4ccsc4)c[nH]c13)CCC2 [Example 12, 5-propoxy-8-thiophen-3-yl-1,2,3,6-tetrahydro-6-aza-cyclopenta[a]naphthalen-9-one] | 80% | 74% | 83% | 82% | 68%
 | CCCOc1cc2c(c3c(=O)c(-c4ccc(OC)cc4)cn(COP(=O)(O)O)c13)OCCC2 [Example 36, [3-(4-methoxyphenyl)-4-oxo-10-propoxy-7,8-dihydro-4H,6H-5-oxa-1-aza-phenanthren-1-ylmethyl]monophosphate disodium salt] | 69% | 67% | 86% | 90% | 89%
 | CCCOc1ccc(F)c2c(=O)c(-c3ccc(OC)cc3)c(C(=O)NCCN3CCOCC3)[nH]c12 [Example 171, 5-fluoro-3-(4-methoxyphenyl)-4-oxo-8-propoxy-1,4-dihydroquinoline-2-carboxy-[2-(morpholin-4-yl)ethyl]amide] | 61% | 61% | 65% | 67% | 68%
135 to 137 °C | CCCOc1cc2c(c3c(=O)c(-c4ccc(OC)cc4)cn(CCCN4CCOCC4)c13)CCC2 |  |  |  |  | 
72 to 74 °C | CCCOc1ccc(F)c2c(=O)c(-c3ccc(OC)cc3)cn(CCS(=O)(=O)CCCN3CCN(C)CC3)c12.Cl.Cl |  |  |  |  | 
 | CCCOc1ccc(F)c2c(=O)c(-c3cnn(C)c3)cn(COP(=O)(O)O)c12 [Example 222, [5-fluoro-3-(1-methyl-1H-pyrazol-4-yl)-4-oxo-8-propoxy-4H-quinolin-1-ylmethyl]monophosphate disodium salt] | 59% | 64% | 66% | 62% | 73%
 | CCCOc1cc2cnccc2c2c(=O)c(-c3ccc(OC)cc3)cn(CC(=O)NCCN3CCOCC3)c12 [Example 69, 2-[9-(4-methoxyphenyl)-10-oxo-6-propoxy-10H-[3,7]phenanthrolin-7-yl]-N-(2-morpholin-4-ylethyl)acetamide] | 78% | 64% | 68% | 67% | 65%
204 to 206 °C | CCCOc1cc2ccccc2c2c(=O)c(-c3ccc(OC)cc3)c(C)[nH]c12 |  |  |  |  | 
 | COc1ccc(-c2c[nH]c3c(OCC(=O)NCCN4CCOCC4)ccc(F)c3c2=O)cc1 [Example 139, 2-[5-fluoro-3-(4-methoxyphenyl)-4-oxo-1,4-dihydro-quinolin-8-yloxy]-N-(2-morpholin-4-ylethyl)acetamide] | 53% | 58% | 57% | 60% | 55%
 | COc1ccc(-c2c[nH]c3c4c(cc(C)c3c2=O)CCO4)cc1 [Example 57, 7-(4-methoxyphenyl)-5-methyl-2,3-dihydro-9H-flo[3,2-h]quinolin-6-one] | 64% | 65% | 68% | 74% | 65%
139 to 141 °C | CCCOc1ccc(F)c2c(=O)c(-c3ccc(OC)cc3)cn(CC(=O)NCCN3CCOCC3)c12 |  |  |  |  | 
252 to 254 °C | CCCOc1cc2ccccc2c2c(=O)c(-c3ccoc3)c[nH]c12 |  |  |  |  | 
 | CCCOc1cc2ccccc2c2c(=O)c(-c3ccsc3)cn(C)c12 [Example 7, 4-methyl-5-propoxy-2-thiophen-3-yl-4H-benzo[f]quinolin-1-one] | 66% | 71% | 78% | 80% | 75%
 | CCCOc1ccc(F)c2c(=O)c(-c3ccc(C(=O)N4CCC(N5CCOCC5)CC4)cc3)c[nH]c12 [Example 163, 5-fluoro-3-[4-(4-morpholin-4-yl-piperidine-1-carbonyl)phenyl]-8-propoxy-1H-quinolin-4-one] | 61% | 61% | 63% | 60% | 63%
201 to 203 °C | CCCOc1cc2c(c3c(=O)c(-c4ccc(OC)cc4)cn(CC(=O)NCCN4CCOCC4)c13)OCCC2 |  |  |  |  | 
211 to 212 °C | CCCOc1ccc(F)c2c(=O)c(-c3ccc(OC)cc3)c(CN3CCN(c4ccccn4)CC3)[nH]c12 |  |  |  |  | 
165 to 167 °C | CCCOc1cc2ccccc2c2c(=O)c(-c3ccoc3)cn(C)c12 |  |  |  |  | 
206 to 208 °C | CCCOc1ccc(F)c2c(=O)c(-c3ccc(OC)cc3)cn(CCN3CCOCC3)c12 |  |  |  |  | 
205 to 207 °C | CCCOc1ccc(F)c2c(=O)c(-c3ccc(OC)cc3)cn(COC(=O)c3ccc(OP(=O)([O-])[O-])cc3)c12.[Na+].[Na+] |  |  |  |  | 
208 to 210 °C | CCCOc1ccc(F)c2c(=O)c(-c3ccc(Cl)cc3Cl)cn(COP(=O)([O-])[O-])c12.[Na+].[Na+] |  |  |  |  | 
 | CCCOc1ccc(F)c2c(=O)c(-c3ccc(OC)cc3)cn(COP(=O)(O)O)c12 [Example 212, [5-fluoro-3-(4-methoxyphenyl)-4-oxo-8-propoxy-4H-quinolin-1-ylmethyl]monophosphate disodium salt] | 46% | 62% | 63% | 70% | 72%
172 to 174 °C | CCCOc1cc2ccccc2c2c(=O)c(-c3ccc(OC)cc3)c[nH]c12 |  |  |  |  | 
150 to 152 °C | CCCOc1ccc(F)c2c(=O)c(-c3ccc(OC)cc3)cn(CCC(=O)OCCN3CCN(C)CC3)c12.Cl.Cl |  |  |  |  | 
